Test results as given in US11365215B2, “Method for preventing, improving, or treating inflammatory bowel disease” (Research & Business Foundation Sungkyunkwan University, priority 2015, dated 2022).
Peptide text beside a SMILES is read from it.

How the values were obtained:
[1] = tested on: G-CSF, IL-2, SCF, VEGF, CX3CL1, IGFBP5, IGFBP6, IL-1α, IL-1β, IL-6, IL-9, MCP-1, MIP-3α, IL12p40/70, MIG, TNF-α, and VCAM-1; assay: Cytokine array (Mouse cytokine array C3) of LPS-treated RAW 264.7 macrophage cells; assay type: cell-based; details: 100 nM for 30 minutes, LPS two hours, densitometer
Procedure: First, RAW 264.7 macrophage cells were purchased from American Type Culture Collection (ATCC; Manassas, Va.), and were culture at a temperature of 37° C., under 5% CO2 atmosphere, using 10% Fetal Bovine Serum (FBS) and Dulbecco's Modified Eagle's Medium (DMEM) containing 1% penicillin/streptomycin.
In addition, RAW 264.7 macrophage cells cultured as described above were also divided into a 6-well plate, after 24 hours, were pretreated with 100 nM of compound 1.1 (SEQ ID NO: 2) for 30 minutes, and further treated with LPS for two hours. The above cell culture was collected and, using a cytokine array (Mouse cytokine array C3, RayBiotech), changes in amounts of cytokine and chemokine were quantified by a densitometer. The cytokines and chemokines detected by the compound of the present invention included G-CSF, IL-2, SCF, VEGF, CX3CL1, IGFBP5, IGFBP6, IL-1α, IL-1β, IL-6, IL-9, MCP-1, MIP-3α, IL12p40/70, MIG, TNF-α, and VCAM-1.

[2] = target: T1, inflammatory signaling pathway complex mediated by MyD88 and RIP1 (Mus musculus, UniProt P22366+Q60855); assay: Immunoprecipitation/immunoblot of inflammatory signaling pathway complex in LPS-treated BMDM cells; assay type: cell-based; details: 100 pM, 1 nM, 100 nM, then 100 ng/mL LPS
T1 construct: endogenous in cells; host or cells: bone-marrow-derived macrophage (BMDM) cells
Procedure: Bone-marrow-derived macrophage (BMDM) cells were individually pretreated with compound 1.1 (SEQ ID NO: 2), reference compound 1 (SEQ ID NO: 16), and smaducin-6 at various concentrations of 100 pM, 1 nM, and 100 nM, and then further treated with 100 ng/mL of LPS.

[3] = tested on: ARPE-19 cells (Nox-4, VEGF, VEGFR1, VEGFR2, Ang1, Ang2, Tie-2, EPO, EPOR); assay: Western blot of angiogenesis related factors in high-glucose ARPE-19 cells; assay type: cell-based, human; details: 30 mM glucose 48 hours, 10 nM and 50 nM
Procedure: ARPE-19 cells were treated with 5.5 mM of glucose as reference control. For experiment group, the ARPE-19 cells were treated with 30 mM of glucose for 48 hours to induce high blood glucose condition, and simultaneously treated with DMSO, compound 1.1 (SEQ ID NO: 2) (10 nM), and compound 1.1 (SEQ ID NO: 2) (50 nM). Changes in expression of Nox-4, VEGF, VEGFR1, VEGFR2, Ang1, Ang2, Tie-2, EPO, and EPOR proteins were measured by Western blot analysis.

HRMEC cells = assay: VEGF-induced tube formation in HRMEC cells; assay type: cell-based; details: HRMEC on Matrigel; 20 ng/ml VEGF 4 hours; 50 nM
Procedure: To evaluate the effect of compound 1.1 (SEQ ID NO: 2) on tube formation during angiogenesis, HRMEC cells ([…]) were cultured on Matrigel coated micro slides and treated with 20 ng/ml of VEGF for 4 hours to induce the tube formation. Simultaneously, for reference group, the cells were treated with DMSO, and for experimental group, the cells were treated with 50 nM of compound 1.1 (SEQ ID NO: 2) and 1 uM of calcein-AM. The cells were observed using fluorescence microscope.

[4] = tested on: STZ-induced diabetic retinopathy; assay: Active oxygen in retina of STZ-induced diabetic retinopathy model; assay type: in vivo; details: mice; 0.2 μg into one eye, three times; vs non-treated DR sample
Procedure: Streptozotocin (STZ) was administered at dose of 50 mg/kg to mice daily for 5 days, and a mouse model having induced diabetic retinopathy was obtained. The experimental group of the mouse model was injected with compound 1.1 (SEQ ID NO: 2), in an amount of 0.2 μg into one eye of the mouse, from the 20th day to 24th days from the administration, three times with two days of interval. After 50 days of administration, a DR sample that was not treated with compound 1.1 (SEQ ID NO: 2) and a DR sample treated with compound 1.1 (SEQ ID NO: 2) were collected.
The collected retina tissues from each mouse group as described above were stained with 5 μM of dihydroethidium and active oxygen rates from each group were measured (FIG. 27B). […] Accordingly, compound 1.1 (SEQ ID NO: 2) of the present invention is effectively used for preventing, alleviating or treating ophthalmic indications such as diabetic retinopathy from the biological experiments using mice.

septicemia (CLP model) = assay: Cecal ligation and puncture (CLP) septicemia model; assay type: in vivo; details: CLP mice; hypodermic 1 mg/kg, 2 hours after CLP, 12 hour intervals, three times
Text: To confirm the effects of compound 1.1 (SEQ ID NO: 2) on septicemia, 10 mice in each group (7-week old, male) were anesthetized, and thereafter, the appendicies were exposed by incision of abdomen. The lower portion of ileocecal valve of the exposed appendix was tied and a single hole was made by using a 22 gage syringe needle. The treated appendix was reinserted into the abdominal cavity, and grafted using thread to obtain a septicemia-induced mice model (cecal ligation and pucture model, CLP model). Experimental methods were described in EMBO Mol Med. (2015) Mar. 12; 7(5):577-92, which is incorporated herein by reference.
Compound 1.1 (SEQ ID NO: 2) was hypodermically injected to the treated mice at dose of 1 mg/kg, after 2 hours from the CLP procedure, with 12 hour intervals, three times. As reference control, smaducin-6 was hypodermically injected at dose of 12 mg/kg as same method used for compound 1.1 (SEQ ID NO: 2). Survival rates of the mice from each group were measured (FIG. 29). Sham comparative group was not treated after incision of abdomen and anastomosis, CLP+PBS comparative group was treated with phosphate buffered saline (PBS) instead of drug compound after cecal ligation and puncture model was prepared. […]

T1 sequence (P22366 whole entry): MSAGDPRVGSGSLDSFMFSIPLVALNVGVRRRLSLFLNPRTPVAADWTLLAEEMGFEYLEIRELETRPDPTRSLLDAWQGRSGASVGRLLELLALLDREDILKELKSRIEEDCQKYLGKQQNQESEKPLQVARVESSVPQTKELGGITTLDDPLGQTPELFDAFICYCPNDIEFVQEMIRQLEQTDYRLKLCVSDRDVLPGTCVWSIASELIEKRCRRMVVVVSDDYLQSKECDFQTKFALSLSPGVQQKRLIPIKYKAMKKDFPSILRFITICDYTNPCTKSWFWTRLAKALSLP
T1 sequence (Q60855 whole entry): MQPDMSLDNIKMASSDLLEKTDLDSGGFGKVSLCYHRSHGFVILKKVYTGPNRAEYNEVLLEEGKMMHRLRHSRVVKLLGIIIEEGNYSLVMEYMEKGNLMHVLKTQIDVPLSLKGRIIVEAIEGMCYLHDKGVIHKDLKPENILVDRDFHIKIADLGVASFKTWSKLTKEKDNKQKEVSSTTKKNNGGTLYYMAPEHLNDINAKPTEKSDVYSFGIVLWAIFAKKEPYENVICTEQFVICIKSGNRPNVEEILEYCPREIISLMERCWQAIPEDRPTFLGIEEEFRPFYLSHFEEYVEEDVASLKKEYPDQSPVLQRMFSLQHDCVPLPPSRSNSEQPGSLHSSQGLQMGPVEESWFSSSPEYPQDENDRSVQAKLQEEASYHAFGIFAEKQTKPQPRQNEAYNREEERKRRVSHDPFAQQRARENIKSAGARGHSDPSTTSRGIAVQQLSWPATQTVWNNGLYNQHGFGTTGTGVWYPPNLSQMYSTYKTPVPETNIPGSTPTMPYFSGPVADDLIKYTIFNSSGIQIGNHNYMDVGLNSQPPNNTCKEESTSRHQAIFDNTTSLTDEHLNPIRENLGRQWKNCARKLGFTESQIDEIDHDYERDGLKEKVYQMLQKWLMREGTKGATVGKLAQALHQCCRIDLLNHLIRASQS

## CCCCCCCCCCCCCCCC(=O)N1CCC[C@H]1C(=O)N1CCC[C@H]1C(=O)NCC(=O)N[C@@H](Cc1ccc(O)cc1)C(=O)O [compound 1.1, (S)-3-(4-hydroxyphenyl)-2-(2-((S)-1-((S)-1-palmitoylpyrrolidine-2-carbonyl)pyrrolidine-2-carboxamido)acetamido)propanoic acid] (HELM PEPTIDE1{[CCCCCCCCCCCCCCCC(=O)[*:2]].P.P.G.Y}$$$$V2.0)
[1]
  expression of cytokines and chemokines induced by LPS (G-CSF, IL-2, SCF, VEGF, CX3CL1, IGFBP5, IGFBP6, IL-1α, IL-1β, IL-6, IL-9, MCP-1, MIP-3α, IL12p40/70, MIG, TNF-α, VCAM-1): suppressed as statistically meaningful
[2]
  formation of inflammatory signaling pathway complex mediated by MyD88 and RIP1: further disrupted in an increasing dose dependent manner
[3]
  expression of Ang1 and Tie-2: increased according to increased concentration
  expression of Nox4, VEGF, VEGFR1,2, Ang2, EPO and EPOR: reduced
HRMEC cells
  tube formation: suppressed tube formation
[4]
  active oxygen rate in retina tissues (dihydroethidium): reduced active oxygen rate
Septicemia (CLP model)
  survival rate: 60%
